The text below walks through data of patent US20250122218A1, “MODULATORS OF CYSTIC FIBROSIS TRANSMEMBRANE CONDUCTANCE REGULATOR” (Vertex Pharmaceuticals Incorporated, priority 2022, published 2025).

Where two headings read alike, the source gives them in different places. Bounds are passed on as bounds.

For data set [1], the target named is T1, CFTR in F508del/MF-HBE cells (Homo sapiens, UniProt P13569, DEL508-508).
T1 construct: human bronchial epithelial (HBE) cells derived from CF subjects heterozygous for F508del and a minimal function CFTR mutation; endogenous in cells; host or cells: primary human bronchial epithelial cells from CF subjects (F508del/MF-HBE)
T1 sequence (P13569 with tags, fused parts or gaps DEL508-508): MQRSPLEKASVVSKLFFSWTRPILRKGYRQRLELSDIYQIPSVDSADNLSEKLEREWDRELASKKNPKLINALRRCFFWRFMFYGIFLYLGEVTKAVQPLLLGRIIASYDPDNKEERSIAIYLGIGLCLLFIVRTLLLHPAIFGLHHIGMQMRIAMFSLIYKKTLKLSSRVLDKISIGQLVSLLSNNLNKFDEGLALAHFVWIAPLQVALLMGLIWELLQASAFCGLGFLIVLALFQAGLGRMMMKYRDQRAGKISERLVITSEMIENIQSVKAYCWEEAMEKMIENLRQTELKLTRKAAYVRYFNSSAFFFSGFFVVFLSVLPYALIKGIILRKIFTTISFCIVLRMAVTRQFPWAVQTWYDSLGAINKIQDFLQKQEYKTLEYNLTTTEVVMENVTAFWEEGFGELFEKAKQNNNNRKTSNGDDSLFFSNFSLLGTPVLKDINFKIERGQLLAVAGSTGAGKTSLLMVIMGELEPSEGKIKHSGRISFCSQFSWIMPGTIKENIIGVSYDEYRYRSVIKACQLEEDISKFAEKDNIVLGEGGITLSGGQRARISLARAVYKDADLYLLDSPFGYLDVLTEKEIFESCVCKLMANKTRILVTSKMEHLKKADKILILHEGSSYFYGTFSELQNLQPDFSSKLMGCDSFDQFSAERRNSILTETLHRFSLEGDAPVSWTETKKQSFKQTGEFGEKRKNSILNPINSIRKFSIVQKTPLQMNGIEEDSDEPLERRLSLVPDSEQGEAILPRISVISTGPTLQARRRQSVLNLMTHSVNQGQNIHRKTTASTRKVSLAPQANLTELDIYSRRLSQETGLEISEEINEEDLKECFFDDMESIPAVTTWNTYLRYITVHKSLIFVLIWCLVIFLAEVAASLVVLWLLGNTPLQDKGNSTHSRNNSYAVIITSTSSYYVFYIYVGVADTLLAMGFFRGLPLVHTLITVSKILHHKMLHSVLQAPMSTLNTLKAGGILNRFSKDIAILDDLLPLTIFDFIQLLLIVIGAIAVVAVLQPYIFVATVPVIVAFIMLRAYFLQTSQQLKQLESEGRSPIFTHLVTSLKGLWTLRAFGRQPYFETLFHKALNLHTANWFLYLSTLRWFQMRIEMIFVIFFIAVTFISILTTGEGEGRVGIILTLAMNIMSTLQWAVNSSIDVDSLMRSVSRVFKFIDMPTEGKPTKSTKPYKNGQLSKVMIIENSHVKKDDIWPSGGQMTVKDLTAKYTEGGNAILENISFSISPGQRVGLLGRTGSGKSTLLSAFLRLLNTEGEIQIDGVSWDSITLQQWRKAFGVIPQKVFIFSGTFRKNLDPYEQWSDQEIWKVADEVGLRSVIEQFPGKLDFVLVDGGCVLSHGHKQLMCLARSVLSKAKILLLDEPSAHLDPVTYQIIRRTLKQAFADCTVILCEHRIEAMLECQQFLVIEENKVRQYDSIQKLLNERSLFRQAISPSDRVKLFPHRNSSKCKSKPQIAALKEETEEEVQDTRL
The experiment in a line: Ussing chamber assay of CFTR-mediated short-circuit currents (identification of potentiator compounds). Conditions: potentiator incubated 18-24 hours at 37° C. in combination with 10 μM corrector, in the presence of 20% human serum, CFTR-mediated ISC. It is filed as cell-based. The method, boiled down:
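F508del/MF-HBE cultures were preincubated 18-24 h at 37° C with potentiator plus 10 μM of a fixed corrector compound in 20% human serum; compounds were kept present during measurement. ISC was recorded under voltage clamp (0 mV, 37° C, amiloride apical) and taken as the 20 μM forskolin peak minus the current after inhibitor cocktail.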

Under “from CC(C)(C)OC(=O)Nc1cc(C(F)(F)F)c(C(=O)O)nc1-c1nnc(C(CCCCNC2CC(F)(F)C2)(OCc2ccccc2)C(F)(F)F)o1, amide bond, 13-membered ring, HATU/DIEA, DMF, 2.67 mM, 1.0 h”, `CC(C)(C)OC(=O)Nc1cc(C(F)(F)F)c2nc1-c1nnc(o1)C(OCc1ccccc1)(C(F)(F)F)CCCCN(C1CC(F)(F)C1)C2=O` (stereo not shown) had a ring closure, isolated yield of 33%.
`CC(C)N1CCCCC(OCc2ccccc2)(C(F)(F)F)C2=NN=C(O2)c2nc(c(C(F)(F)F)cc2N)CC1=O` (stereo not shown) returned a ring closure, isolated yield (from CC(C)NCCCCC(OCc1ccccc1)(c1nnc(-c2nc(CC(=O)O)c(C(F)(F)F)cc2N)o1)C(F)(F)F, amide bond, 14-membered ring, T3P/DIEA, EtOAc/NMP, 33.9 mM, 2.0 h) of 23%.
`CN1CCCCC(OCc2ccccc2)(C(F)(F)F)C2=NN=C(O2)c2nc(c(C(F)(F)F)cc2N)CC1=O` (stereo not shown) returned a ring closure, isolated yield (from CNCCCCC(OCc1ccccc1)(c1nnc(-c2nc(CC(=O)O)c(C(F)(F)F)cc2N)o1)C(F)(F)F, amide bond, 14-membered ring, T3P/DIEA, EtOAc/NMP, 35.7 mM, 5.0 h) of 45%.
Molecule `Nc1cc(C(F)(F)F)c2nc1-c1nnc(o1)C(OCc1ccccc1)(C(F)(F)F)CCCCN(Cc1ccccc1)C(=O)C2` (stereo not shown) had a ring closure, isolated yield (from Nc1cc(C(F)(F)F)c(CC(=O)O)nc1-c1nnc(C(CCCCNCc2ccccc2)(OCc2ccccc2)C(F)(F)F)o1, amide bond, 14-membered ring, T3P/DIEA, EtOAc/NMP, 31.5 mM, 2.0 h) of 66%.
Take `CC(C)(C)OC(=O)Nc1cc(C(F)(F)F)c2nc1-c1nnc(o1)C(O)(C(F)(F)F)c1cccc(c1)C=CCCC2C#N` (mixture of isomers): the ring closure, isolated yield (from C=CCCC(C#N)c1nc(-c2nnc(C(O)(c3cccc(I)c3)C(F)(F)F)o2)c(NC(=O)OC(C)(C)C)cc1C(F)(F)F, cc_pd bond, 15-membered ring, Pd(OAc)2/P(o-tol)3/Et3N, MeCN, 9.4 mM, 80.0 °C) is 93%.
On to `CC(C)(C)OC(=O)Nc1cc(C(F)(F)F)c2nc1-c1nnc(o1)C(OCc1ccccc1)(C(F)(F)F)CCC=CCCC2` (mixture of isomers), for which the ring closure, isolated yield (from C=CCCCc1nc(-c2nnc(C(CCC=C)(OCc3ccccc3)C(F)(F)F)o2)c(NC(=O)OC(C)(C)C)cc1C(F)(F)F, rcm bond, 14-membered ring, Grubbs II (22 mol%), toluene, 2.63 mM, 100.0 °C) came to 39%.
`COC1CCC=Cc2ccc(F)c(c2)C(O)(C(F)(F)F)C2=NN=C(O2)c2nc1c(C(F)(F)F)cc2NC(=O)OC(C)(C)C` (mixture of isomers): the ring closure, isolated yield (from C=CCCC(OC)c1nc(-c2nnc(C(O)(c3cc(I)ccc3F)C(F)(F)F)o2)c(NC(=O)OC(C)(C)C)cc1C(F)(F)F, cc_pd bond, 15-membered ring, Pd(OAc)2/P(o-tol)3/Et3N, MeCN, 6.3 mM, 80.0 °C, 16.0 h) stood at 62%.
With `Nc1cc(C(F)(F)F)c2nc1-c1nnc(o1)[C@@](O)(C(F)(F)F)CCCCCN(C1(C3CC3)CC1)C2=O` [Compound 253, (6R)-17-amino-12-(1-cyclopropylcyclo-propyl)-6-hydroxy-6,15-bis(trifluoromethyl)-19-oxa-3,4,12,18-tetrazatricyclo [12.3.1.12,5] nonadeca-1(18),2,4,14,16-pentaen-13-one], in data set [1], the EC50 (usually the midpoint of the concentration-response curve) was less than 500 nM.
Consider `Nc1cc(C(F)(F)F)c2nc1-c1nnc(o1)[C@@](O)(C(F)(F)F)CCCCCN(Cc1cccc(OC(F)F)c1)C2=O` [Compound 254, (6R)-17-amino-12-[[3-(difluoromethoxy)phenyl]methyl]-6-hydroxy-6,15-bis(trifluoromethyl)-19-oxa-3,4,12,18-tetrazatricyclo [12.3.1.12,5] nonadeca-1(18),2,4,14,16-pentaen-13-one], for which the EC50 in data set [1] was less than 500 nM.
With `Nc1cc(C(F)(F)F)c2nc1-c1nnc(o1)[C@@](O)(C(F)(F)F)CCCCCN(Cc1ccc(F)c(C3CC3)c1)C2=O` [Compound 255, (6R)-17-amino-12-[(3-cyclopropyl-4-fluoro-phenyl)methyl]-6-hydroxy-6,15-bis(trifluoromethyl)-19-oxa-3,4,12,18-tetrazatricyclo [12.3.1.12,5] nonadeca-1(18),2,4,14,16-pentaen-13-one], in data set [1], the concentration for a half-maximal effect (EC50) is less than 500 nM.
Still for that read-out and setting: under `Nc1cc(C(F)(F)F)c2nc1-c1nnc(o1)[C@@](O)(C(F)(F)F)CCCCCN(Cc1ccc(F)c(C3CCC3)c1)C2=O` [Compound 256, (6R)-17-amino-12-[(3-cyclobutyl-4-fluoro-phenyl)methyl]-6-hydroxy-6,15-bis(trifluoromethyl)-19-oxa-3,4,12,18-tetrazatricyclo [12.3.1.12,5] nonadeca-1(18),2,4,14,16-pentaen-13-one] stands less than 500 nM.
With `Nc1cc(C(F)(F)F)c2nc1-c1nnc(o1)[C@@](O)(C(F)(F)F)CCCCCN(Cc1cc(F)cc(Cl)c1)C2=O` [Compound 257, (6R)-17-amino-12-[(3-chloro-5-fluoro-phenyl)methyl]-6-hydroxy-6,15-bis(trifluoromethyl)-19-oxa-3,4,12,18-tetrazatricyclo [12.3.1.12,5] nonadeca-1(18),2,4,14,16-pentaen-13-one], the EC50 in data set [1] was less than 500 nM.
Regarding `Nc1cc(C(F)(F)F)c2nc1-c1nnc(o1)[C@@](O)(C(F)(F)F)CCCCCN(Cc1cc(F)cc(C(F)(F)F)c1)C2=O` [Compound 258, (6R)-17-amino-12-[[3-fluoro-5-(trifluoromethyl)phenyl]methyl]-6-hydroxy-6,15-bis(trifluoromethyl)-19-oxa-3,4,12,18-tetrazatricyclo [12.3.1.12,5] nonadeca-1(18),2,4,14,16-pentaen-13-one], the EC50 in data set [1] is less than 500 nM.
On to `Nc1cc(C(F)(F)F)c2nc1-c1nnc(o1)[C@@](O)(C(F)(F)F)CCCCCN(Cc1cc(C3CC3)ccc1F)C2=O` [Compound 259, (6R)-17-amino-12-[(5-cyclopropyl-2-fluoro-phenyl)methyl]-6-hydroxy-6,15-bis(trifluoromethyl)-19-oxa-3,4,12,18-tetrazatricyclo [12.3.1.12,5] nonadeca-1(18),2,4,14,16-pentaen-13-one], for which, in data set [1], the EC50 was less than 500 nM.
On the same count and under the same terms, under `Nc1cc(C(F)(F)F)c2nc1-c1nnc(o1)[C@@](O)(C(F)(F)F)CCCCCN(Cc1cc(C3CCC3)ccc1F)C2=O` [Compound 260, (6R)-17-amino-12-[(5-cyclobutyl-2-fluoro-phenyl)methyl]-6-hydroxy-6,15-bis(trifluoromethyl)-19-oxa-3,4,12,18-tetrazatricyclo [12.3.1.12,5] nonadeca-1(18),2,4,14,16-pentaen-13-one] stands less than 500 nM; under `Nc1cc(C(F)(F)F)c2nc1-c1nnc(o1)[C@@](O)(C(F)(F)F)CCCCCN(Cc1ccc(OC(F)(F)F)c(F)c1)C2=O` [Compound 265, (6R)-17-amino-12-[[3-fluoro-4-(trifluoromethoxy)phenyl]methyl]-6-hydroxy-6,15-bis(trifluoromethyl)-19-oxa-3,4,12,18-tetrazatricyclo [12.3.1.12,5] nonadeca-1(18),2,4,14,16-pentaen-13-one], less than 500 nM; under `Nc1cc(C(F)(F)F)c2nc1-c1nnc(o1)[C@@](O)(C(F)(F)F)CCCCCN(Cc1ccc(OC(F)F)cc1)C2=O` [Compound 266, (6R)-17-amino-12-[[4-(difluoromethoxy)phenyl]methyl]-6-hydroxy-6,15-bis(trifluoromethyl)-19-oxa-3,4,12,18-tetrazatricyclo [12.3.1.12,5] nonadeca-1(18),2,4,14,16-pentaen-13-one], less than 500 nM.
The same measure, in the same setting: the same measure for `Nc1cc(C(F)(F)F)c2nc1-c1nnc(o1)[C@@](O)(C(F)(F)F)CCCCCN(Cc1ccc(OC(F)F)c(F)c1)C2=O` [Compound 267, (6R)-17-amino-12-[[4-(difluoromethoxy)-3-fluoro-phenyl]methyl]-6-hydroxy-6,15-bis(trifluoromethyl)-19-oxa-3,4,12,18-tetrazatricyclo [12.3.1.12,5] nonadeca-1(18),2,4,14,16-pentaen-13-one]: less than 500 nM; for `Nc1cc(C(F)(F)F)c2nc1-c1nnc(o1)[C@@](O)(C(F)(F)F)CCCCCN(Cc1ccc(OC(F)F)nc1)C2=O` [Compound 268, (6R)-17-amino-12-[[6-(difluoromethoxy)-3-pyridyl]methyl]-6-hydroxy-6,15-bis(trifluoromethyl)-19-oxa-3,4,12,18-tetrazatricyclo [12.3.1.12,5] nonadeca-1(18),2,4,14,16-pentaen-13-one]: less than 500 nM; for `Nc1cc(C(F)(F)F)c2nc1-c1nnc(o1)[C@@](O)(C(F)(F)F)CCCCCN(Cc1ccnc(OC(F)F)c1)C2=O` [Compound 269, (6R)-17-amino-12-[[2-(difluoromethoxy)-4-pyridyl]methyl]-6-hydroxy-6,15-bis(trifluoromethyl)-19-oxa-3,4,12,18-tetrazatricyclo [12.3.1.12,5] nonadeca-1(18),2,4,14,16-pentaen-13-one]: greater than 1000 nM.
Take `Nc1cc(C(F)(F)F)c2nc1-c1nnc(o1)[C@@](O)(C(F)(F)F)CCCCCN(Cc1ccnc(OC3CCC3)c1)C2=O` [Compound 270, (6R)-17-amino-12-[[2-(cyclobutoxy)-4-pyridyl]methyl]-6-hydroxy-6,15-bis(trifluoromethyl)-19-oxa-3,4,12,18-tetrazatricyclo [12.3.1.12,5] nonadeca-1(18),2,4,14,16-pentaen-13-one]: in data set [1], the EC50 was less than 500 nM.
Turning to `N#Cc1cccc(CN2CCCCC[C@](O)(C(F)(F)F)C3=NN=C(O3)c3nc(c(C(F)(F)F)cc3N)C2=O)c1` [Compound 271, 3-[[(6R)-17-amino-6-hydroxy-13-oxo-6,15-bis(trifluoromethyl)-19-oxa-3,4,12,18-tetrazatricyclo[12.3.1.12,5]nonadeca-1(18),2,4,14,16-pentaen-12-yl]methyl]benzonitrile], the EC50 in data set [1] is less than 500 nM.
